Laboratory results reported in patent US20160158262A1, “METHODS OF TREATING IRRITABLE BOWEL SYNDROME” (CEDARS-SINAI MEDICAL CENTER, priority 2013, published 2016).

How the values were obtained:
methane = settings: retrospective study; cited from earlier work
[1] = tested on: non-constipated IBS subjects; settings: cited from earlier work
[2] = tested on: C-IBS subjects with methane; experiment: Randomized double-blind trial in methane-positive C-IBS subjects: weekly symptom severity questionnaires (VAS 0-100); assay type: in vivo, human
Procedure: Consecutive C-IBS subjects (18-65 yrs of age) (Rome III criteria) were recruited after applying exclusion criteria. All subjects presented for a lactulose breath test after a 12 hour fast. Only subjects with methane level >3 ppm on at least 1 breath sample were enrolled. Subjects then completed a stool diary, questionnaire (100 point VAS scale for bloating, abdominal pain, constipation, diarrhea and straining) and 2 week run in phase. […] Questionnaires were repeated weekly during treatment and for 4 weeks following completion of treatment. On the last week of follow up, the stool diary was repeated.
Consecutive patients (18-65 yrs of age) who fulfilled the Rome II criteria for C-IBS^2 were recruited. Patients were included if they reported <3 complete and spontaneous bowel movements (CSBMs) per week and had breath methane >3 ppm. […] Subjects were also excluded if they had taken an antibiotic or probiotic in the previous 30 days or were currently taking narcotics, proton pump inhibitors, tricyclic antidepressants, or medications known to alter intestinal motility. All subjects provided informed written consent and the study was approved by the institutional review board of all three study sites. Subjects who completed the study received a stipend. The study was registered with clinicaltrials.gov (NCT00945334).
The allocation was concealed. […] The pharmacy, investigators and patients were blinded.
(§1) Following completion of therapy, subjects were asked to continue with the weekly symptom questionnaires for an additional 4 weeks. During the final week of follow up, subjects were asked to repeat the 7-day stool diary followed by the final weekly questionnaire. Finally, subjects were asked to repeat a single fasting breath sample to examine for the presence of methane.
The baseline study questionnaire included subject demographics as well as symptom severity information. Follow-up questionnaires included a repeat evaluation of symptom severity. The following were assessed: abdominal pain, constipation, bloating, urgency, incomplete evacuation, straining and diarrhea. Severity was rated using a visual analog scale (VAS) from 0-100 mm (with 0=no symptom and 100=severe symptoms).
The primary outcome measure of this study was constipation severity as assessed on a VAS score from the first week following completion of the treatment phase. […] In addition, the eradication of methane was evaluated as a determinant of improvement at 4 weeks post therapy.
Data were expressed as mean±SD.
To examine the effect of each group over the duration of the study, a mixed longitudinal model was used. […] The models were analyzed with a single covariate (baseline diarrhea, constipation, abdominal pain, or bloating severity score). […]

breath methane = experiment: Fasting breath sample for methane after therapy in the same trial; assay type: in vivo, human
Procedure: as §1
Subjects were asked to fast for 12 hours prior to a breath sample being obtained. Breath samples were collected via a Quintron dual bag collecting system (Quintron Instrument Company, Milwaukee, Wis.). The sampled gas was analyzed using a BreathTracker SC (Quintron Instrument Company, Milwaukee, Wis.). Output was reported as methane in parts per million (ppm) after correction for alveolar sample quality using breath CO2 concentration.
The primary outcome measure of this study was constipation severity as assessed on a VAS score from the first week following completion of the treatment phase. Secondary outcome measures included the severity of constipation, abdominal pain, urgency, bloating and straining over the entire study period. In addition, the eradication of methane was evaluated as a determinant of improvement at 4 weeks post therapy.

[3] = in vivo
Procedure: All subjects with a diagnosis of C-IBS presented for a fasting breath test after a 12 hour fast. Only subjects with methane level of >3 ppm on a single breath sample were enrolled. Subjects then completed a baseline study questionnaire and a baseline audiogram. […] Subjects were then asked to complete a daily stool diary for two weeks with weekly questionnaires for overall symptom severity. Subjects were eligible for randomization only if they were confirmed to have <3 CSBMs per week during stool diary.
The randomization scheme was set in blocks of 4 and each site received batches of drug in multiples of 4 to balance each study site into blocks. The allocation was concealed. The randomization was done by the drug company with a tracking list provided to the study site pharmacy in a concealed envelope. The pharmacy, investigators and patients were blinded. During the 14 days of treatment, subjects completed weekly symptom questionnaires (2 questionnaires over 2 weeks).
Baseline qualitative data and side effect rates were compared by Fisher's Exact Test. Quantitative baseline data was normal so were compared by t-Test. Data were expressed as mean±SD. The primary endpoint was also normally distributed and compared by t-test.

[4] = tested on: non-selected population of IBS; settings: cited from earlier work
[5] = by week 2 of treatment, 100 point VAS, mean±SD

| Molecule | benefit of single antibiotic (methane) | duration of benefits following cessation of therapy ([1]; after 14 days of rifaximin therapy, global symptom rating, bloating, stool consistency, abdominal pain) | efficacy versus placebo in the treatment of IBS ([1]; multiple published randomized trials) | bloating severity (VAS) [2, 5] | constipation VAS score [2, 5] | difference in constipation severity between subjects with and without methane ≦3 ppm ([2]; final visit) | VAS score for constipation (primary endpoint) ([2]; one week after completion of 14 days of therapy, ITT, mean±SD) | reduction in methane from baseline (median drop) (breath methane; fasting breath sample, final visit vs baseline) | subjects with methane levels ≦3 ppm following treatment (breath methane; final visit, of 15 subjects (rifaximin plus neomycin), out of 16 subjects (neomycin)) | Side effect: Abdominal pain [3] | Side effect: Bloating and distension [3] | Side effect: Constipation [3] | Side effect: Diarrhea [3] | Side effect: Nausea [3] | Side effect: Urgency [3] | improvement of IBS compared to placebo [4] | rate of normalizing the breath test [4] |
| --- | --- | --- | --- | --- | --- | --- | --- | --- | --- | --- | --- | --- | --- | --- | --- | --- | --- |
| CO[C@H]1/C=C/O[C@@]2(C)Oc3c(C)c(O)c4c(O)c(c5c(nc6cc(C)ccn65)c4c3C2=O)NC(=O)/C(C)=C\C=C\[C@H](C)[C@H](O)[C@@H](C)[C@@H](O)[C@@H](C)[C@H](OC(C)=O)[C@@H]1C [Rifaximin, rifaximin] | did not have a substantial benefit | 3 months | superiority over placebo |  |  |  |  |  |  |  |  |  |  |  |  |  |  |
| neomycin | did not have a substantial benefit |  |  | 65.1±25.9 | 57.9±25.0 | no significant difference | 61.2±24.1 | 7.5 ppm | 11 subjects | 6 (38) n(%) | 9 (56) n(%) | 2 (13) n(%) | 2 (13) n(%) | 10 (63) n(%) | 2 (13) n(%) | successful in improving IBS | poor rate |
